In ChEMBL document CHEMBL4406813, “2-Amino-2,3-dihydro-1H-indene-5-carboxamide-Based Discoidin Domain Receptor 1 (DDR1) Inhibitors: Design, Synthesis, and in Vivo Antipancreatic Cancer Efficacy” (J Med Chem, 2019):

Key:
in vivo [1] = details: Sprague-Dawley, rat, iv, 5 mg/kg
in vivo [2] = details: Sprague-Dawley, rat, iv, 5 mg/kg; remark: listed apart in the source
in vivo [3] = details: Sprague-Dawley, rat, po, 25 mg/kg

Cc1cn(-c2cc(NC(=O)c3ccc4c(c3)C[C@H](N(C)c3cncnc3)C4)cc(C(F)(F)F)c2)cn1
Cmax (in vivo [1]): 14700 ng/mL
AUC(0-inf) (in vivo [2]): 16900 ng·h/mL
Cmax (in vivo [3]): 15400 ng/mL
